# Laboratory results published in the supplement of paper PMC4862054.
# Columns and labels:
# [1] = test system: BT-474; experiment: normalised viability (% of control), CellTiter-Blue; higher = more viable cells (about 100 = DMSO control); details: 100 nM; incubation time: 72 h
# Description: (§1)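 DSRT, CellTiter-Blue viability, 72 h incubation. Signal is normalised to DMSO and benzethonium chloride controls. Value is the normalised response at dose 3.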
# [2] = test system: BT-549; experiment: as above; details: 100 nM; incubation time: 72 h
# Description: as §1
# [3] = test system: CAL-120; experiment: as above; details: 100 nM; incubation time: 72 h
# Description: as §1
# [4] = test system: CAL-148; experiment: as above; details: 10 nM; incubation time: 72 h
# Description: as §1
# [5] = test system: CAL-51; experiment: as above; details: 10 nM; incubation time: 72 h
# Description: as §1
# [6] = test system: CAL-85-1; experiment: as above; details: 10 nM; incubation time: 72 h
# Description: as §1
# [7] = test system: DU-4475; experiment: as above; details: 10 nM; incubation time: 72 h
# Description: as §1
# [8] = test system: HCC1143; experiment: as above; details: 100 nM; incubation time: 72 h
# Description: as §1
# [9] = test system: HCC1599; experiment: as above; details: 100 nM; incubation time: 72 h
# Description: as §1
# [10] = test system: HCC1937; experiment: as above; details: 100 nM; incubation time: 72 h
# Description: as §1
# [11] = test system: HDQ-P1; experiment: as above; details: 10 nM; incubation time: 72 h
# Description: as §1
# [12] = test system: Hs578T; experiment: as above; details: 100 nM; incubation time: 72 h
# Description: as §1
# [13] = test system: MDA-MB-231; experiment: as above; details: 100 nM; incubation time: 72 h
# Description: as §1
# [14] = test system: MDA-MB-436; experiment: as above; details: 100 nM; incubation time: 72 h
# Description: as §1
# [15] = test system: MDA-MB-453; experiment: as above; details: 10 nM; incubation time: 72 h
# Description: as §1
# [16] = test system: MDA-MB-468; experiment: as above; details: 100 nM; incubation time: 72 h
# Description: as §1
# [17] = test system: MFM-223; experiment: as above; details: 100 nM; incubation time: 72 h
# Description: as §1
# [18] = test system: SK-BR-3; experiment: as above; details: 100 nM; incubation time: 72 h
# Description: as §1
# [19] = test system: CAL-148; experiment: as above; details: 1000 nM; incubation time: 72 h
# Description: (§2)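 DSRT, CellTiter-Blue viability, 72 h incubation. Signal is normalised to DMSO and benzethonium chloride controls. Value is the normalised response at dose 7.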
# [20] = test system: CAL-51; experiment: as above; details: 1000 nM; incubation time: 72 h
# Description: as §2
# [21] = test system: CAL-85-1; experiment: as above; details: 1000 nM; incubation time: 72 h
# Description: as §2
# [22] = test system: DU-4475; experiment: as above; details: 1000 nM; incubation time: 72 h
# Description: as §2
# [23] = test system: HDQ-P1; experiment: as above; details: 1000 nM; incubation time: 72 h
# Description: as §2
# [24] = test system: MDA-MB-453; experiment: as above; details: 1000 nM; incubation time: 72 h
# Description: as §2
# [25] = test system: CAL-148; experiment: normalised viability (% of control), CellTiter-Blue; higher = more viable cells (about 100 = DMSO control); details: 10000 nM; incubation time: 72 h
# Summary of the method: (§3)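 Normalised viability is given for a single listed concentration of the series. In 384-well plates, breast cancer cell lines were incubated 72 h with compound, then read with CellTiter-Blue (2 h, 37 °C) at 560/590 nm. Per-plate scaling set vehicle to 100 and a positive kill control to 0, with Z'-factor quality control.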
# [26] = test system: CAL-51; experiment: as above; details: 10000 nM; incubation time: 72 h
# Summary of the method: as §3
# [27] = test system: CAL-85-1; experiment: as above; details: 10000 nM; incubation time: 72 h
# Summary of the method: as §3
# [28] = test system: CAL-120; experiment: drug sensitivity score (DSS), CellTiter-Glo (DSS (AUC-based score)); higher = stronger drug effect (viability inhibition or cytotoxicity); extreme values may be limits of the assay; details: incubation time: 72 h
# Summary of the method: (§4)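 Using 20 µl of cell suspension per well, breast cancer cell lines were seeded into 384-well plates pre-loaded with compound at 5 concentrations in 10-fold steps across a compound-specific 10,000-fold range. Incubation lasted 72 h, after which CellTox Green fluorescence at 485/520 nm and then CellTiter-Glo luminescence, following 10 min at room temperature, were recorded. Each plate was normalised to 0.1 % DMSO and a positive kill control before the drug sensitivity score was derived from the area under the fitted dose-response curve.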
# [29] = test system: CAL-51; experiment: as above; details: incubation time: 72 h
# Summary of the method: as §4
# [30] = test system: SK-BR-3; experiment: as above; details: incubation time: 72 h
# Summary of the method: as §4
Structure (SMILES),normalised viability [1] [%],normalised viability [2] [%],normalised viability [3] [%],normalised viability [4] [%],normalised viability [5] [%],normalised viability [6] [%],normalised viability [7] [%],normalised viability [8] [%],normalised viability [9] [%],normalised viability [10] [%],normalised viability [11] [%],normalised viability [12] [%],normalised viability [13] [%],normalised viability [14] [%],normalised viability [15] [%],normalised viability [16] [%],normalised viability [17] [%],normalised viability [18] [%],normalised viability [19] [%],normalised viability [20] [%],normalised viability [21] [%],normalised viability [22] [%],normalised viability [23] [%],normalised viability [24] [%],normalised viability [25] [%],normalised viability [26] [%],normalised viability [27] [%],drug sensitivity score [28],drug sensitivity score [29],drug sensitivity score [30]
Nc1nc2[nH]cc(CCc3ccc(C(=O)N[C@@H](CCC(=O)O)C(=O)O)cc3)c2c(=O)[nH]1 [Pemetrexed],125,87.8,86,101,108,99.8,104,91.6,88.9,92.8,120,102,94.9,97.2,118,99,91.6,84,115,102,72.3,93.9,94.8,104,66.5,91,55.4,1.52,13.7,11
N#Cc1ccc(C(c2ccc(C#N)cc2)n2cncn2)cc1 [Letrozole],102,97,76.4,87.8,110,90.3,99.8,77.9,104,97.4,101,88.1,84,106,88,91.3,74.9,83,86,106,84.8,87.2,83.8,96.5,92.4,96.3,70.3,0,0,0
Nc1nc(F)nc2c1ncn2[C@@H]1O[C@H](CO)[C@@H](O)[C@@H]1O [Fludarabine],107,107,82.2,90.9,101,101,115,83,105,110,103,95.4,95.3,95.2,109,109,92.8,99.9,93.8,102,93.8,99.5,98.4,108,64.9,101,78.1,0.352,0,0
Nc1ccccc1NC(=O)c1ccc(CNC(=O)OCc2cccnc2)cc1 [Entinostat],106,91.5,85.4,93.3,114,96.7,117,82.2,93.3,104,102,93.3,97.1,83.5,120,110,100,85.6,78.8,105,85.4,121,111,89.1,9.38,29.6,20.7,0,12.8,6.67
CCc1cncnc1N1CCN(Cc2nc3ccc(C(F)(F)F)cc3[nH]2)CC1,123,88.2,105,107,87,96.3,94.2,132,86.2,104,116,96.4,91.6,99.8,98.8,117,103,98.2,124,87,101,101,95.9,96.5,108,64,110,0.0627,7.14,0
C=CC(=O)Nc1cc2c(Nc3ccc(F)c(Cl)c3)ncnc2cc1OCCCN1CCOCC1 [Canertinib],55.7,114,81.5,81.9,109,85.4,108,90.1,91.8,97.4,96.6,79.4,91.7,102,95,67.1,98.3,21.4,68.6,101,49.5,114,55.4,33.8,29.8,4.95,2.97,3.29,14.1,20.8
